Measurements as given in publication PMC7539012, “Hyperphosphorylated tau aggregation and cytotoxicity modulators screen identified prescription drugs linked to Alzheimer's disease and cognitive functions” (Scientific Reports, 2020).
Where a name gives a salt, the structure may show the parent alone. *1 amine or outer side, *2 acyl side, *3 side chain or, on linkers, in order; H or OH if unused. Where a SMILES comes first, the peptide text is derived from it. Bridges are numbered along the chain shown (N, C = ends). [ ]: non-standard residue; d: D form. The star is where a group is joined. X1 = NC1=N[C@@H](O)C[C@H]([C@H](N[*:1])C(=O)[*:2])N1; ΔAla(Z-3-ureido) = NC(=O)N/C=C(\N)C(=O)O; β3hOrn = NCCC[C@H](N)CC(=O)*; Dap = NC[C@H](N)C(=O)O

test system: T1, 1N4R p-tau; assay: p-tau aggregation modulator screen of 1280-compound library (ThS fluorescence net change over 16 h); type: biochemical; set-up: key to PTAI>2SD: *: PTAI>2SD; key to PTAI>3SD: *: PTAI>3SD; conditions: not given;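 on ThS net change: 30 µM compound with 6 µM p-tau over 16 h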
T1 construct: made in house; host or cells: E. coli (PIMAX system)

Compared with `C=C[C@H]1CN2CC[C@H]1C[C@@H]2[C@@H](O)c1ccnc2ccc(OC)cc12.Cl.O` [Quinidine hydrochloride monohydrate], `CN1CCc2cccc3c2[C@H]1Cc1ccc(O)c(O)c1-3.CN1CCc2cccc3c2[C@H]1Cc1ccc(O)c(O)c1-3.Cl.Cl.O` is lower in ThS net change: 282 for the first, 233 for the second.

Going from `CC(=O)N(O)CCCCCNC(=O)CCC(=O)N(O)CCCCCNC(=O)CCC(=O)N(O)CCCCCN` [Deferoxamine mesylate] to `Cc1onc(-c2c(Cl)cccc2Cl)c1C(=O)N[C@@H]1C(=O)N2[C@@H]1SC(C)(C)[C@@H]2C(=O)[O-].O.[Na+]` [Dicloxacillin sodium salt hydrate], the ThS net change falls from 439 to 415.

Compared with `NC(=O)OCCCc1ccccc1` [Phenprobamate], `CCOC(=O)c1cncn1[C@H](C)c1ccccc1` [Etomidate] is higher in ThS net change: 323 for the first, 447 for the second.

Going from `CC(=O)[C@H]1CC[C@H]2[C@@H]3CC[C@H]4C[C@H](O)CC[C@]4(C)[C@H]3C(=O)C[C@]12C` [Alfaxalone] to `Nc1ccc(C(=O)O)c(O)c1` [4-aminosalicylic acid], the ThS net change rises from 420 to 428.

same assay, conditions: 1280-compound library screen; ThS fluorescence net change over 16 h

Going from `NS(=O)(=O)c1cc2c(cc1Cl)NCNS2(=O)=O` [Hydrochlorothiazide] to `NS(=O)(=O)c1cc(Cl)c(Cl)c(S(N)(=O)=O)c1` [Dichlorphenamide], the ThS net change rises from 384 to 404.

Going from `CC(C)[N+](C)(CCC(C(N)=O)(c1ccccc1)c1ccccc1)C(C)C` [Isopropamide iodide] to `c1ccc(CN(CC2=NCCN2)c2ccccc2)cc1` [Antazoline hydrochloride], the ThS net change rises from 395 to 399.

Compared with `CC1=C(/C=C/C(C)=C/C=C/C(C)=C\C(=O)O)C(C)(C)CCC1` [Isotretinoin], `CCN(CC)C(=O)N1CCN(C)CC1` [Diethylcarbamazine citrate] is higher in ThS net change: 389 for the first, 391 for the second.

First: CC(=O)Oc1ccc(C(c2ccc(OC(C)=O)cc2)c2ccccn2)cc1 [Bisacodyl]
Second: CC(C(=O)O)c1ccc(C(=O)c2cccs2)cc1 (centres unmarked) [Suprofen]
The ThS net change of the first is higher: 398 for the first, 391 for the second.

`CCOC(=O)n1ccn(C)c1=S` [Carbimazole] and `Cc1c(NC(C)C)c(=O)n(-c2ccccc2)n1C.Cl` [Isopyrin hydrochloride] are the same in ThS net change: 380 for the first, 380 for the second.

Going from `CN1CCCCC1CCN1c2ccccc2Sc2ccc([S+](C)[O-])cc21` (centres unmarked) [Mesoridazine besylate] to `O=C(O)CCC(=O)Nc1ccc(S(=O)(=O)Nc2nccs2)cc1` [Succinylsulfathiazole], the ThS net change falls from 391 to 382.

`CC(C)NC[C@H](O)c1ccc(O)c(O)c1.Cl` [(-)-Isoproterenol hydrochloride] and `COC(=O)CCc1ccc(OCC(O)CNC(C)C)cc1` (centres unmarked) [Esmolol hydrochloride] are the same in ThS net change: 400 for the first, 400 for the second.

same assay, conditions: 1280-compound library screen; […]

Compared with `CN(C)C(=O)Oc1ccc[n+](C)c1.[I-]` [Pyridostigmine iodide], `C[n+]1ccccc1/C=N/O` [Pralidoxime chloride] is higher in ThS net change: 381 for the first, 397 for the second.

same assay, conditions: flag: p-tau aggregation inhibitor, ThS net change more than 2 SD from mean

In the case of `CCN(CC)CCNc1ccc(CO)c2sc3ccccc3c(=O)c12` [Hycanthone], the “PTAI>2SD” value is reported as “*”.

same assay, conditions: flag: p-tau aggregation inhibitor, ThS net change more than 3 SD from mean

`Cc1cc(/C=C/c2ccc3cc(N(C)C)ccc3[n+]2C)c(C)n1-c1ccccc1` [Pyrvinium pamoate] was tested, and the “PTAI>3SD” value was “*”.

same assay, conditions: library screen, ThS fluorescence net change over 16 h with p-tau

Going from `CN(C)CCCN1c2ccccc2Sc2ccc(Cl)cc21` [Chlorpromazine hydrochloride] to `CN1CCN(CCCN2c3ccccc3Sc3ccc(S(=O)(=O)N(C)C)cc32)CC1.CS(=O)(=O)O.CS(=O)(=O)O` [Thioproperazine dimesylate], the ThS net change falls from 317 to 314.

Going from `C=C1/C(=C\C=C2/CCC[C@]3(C)[C@@H]([C@H](C)CCCC(C)C)CC[C@@H]23)C[C@@H](O)C[C@@H]1O` [Alfacalcidol] to `CO[C@]12C[C@@H](COC(=O)c3cncc(Br)c3)CN(C)[C@@H]1Cc1cn(C)c3cccc2c13` [Nicergoline], the ThS net change falls from 284 to 260.

Compared with `O=C1NCN(c2ccccc2)C12CCN(CCCC(c1ccc(F)cc1)c1ccc(F)cc1)CC2` [Fluspirilen], `CN1CCC(=C2c3ccccc3Sc3ccccc32)CC1` [Pimethixene maleate] is higher in ThS net change: 258 for the first, 320 for the second.

Compared with `Cc1cc(/C=C/c2ccc3cc(N(C)C)ccc3[n+]2C)c(C)n1-c1ccccc1` [Pyrvinium pamoate], `COc1ccc(CN(CCN(C)C)c2ccccn2)cc1` [Pyrilamine maleate] is higher in ThS net change: -379 for the first, 298 for the second.

With `CCN(CC)CCNc1ccc(CO)c2sc3ccccc3c(=O)c12` [Hycanthone] the ThS net change was 171.

same assay, conditions: p-tau aggregation modulator screen of 1280-compound library; ThS fluorescence net change

First: COc1cc(OC)c(C(=O)CCCN2CCCC2)c(OC)c1.Cl [Buflomedil hydrochloride]
Second: CCc1cc(Cl)c(OC)c(C(=O)NC[C@@H]2CCCN2CC)c1O.Cl [S(-)Eticlopride hydrochloride]
The ThS net change of the first is higher: 363 for the first, 329 for the second.

Compared with `CCOC(=O)C1=C(COCCN)NC(C)=C(C(=O)OC)C1c1ccccc1Cl` (centres unmarked) [Amlodipine], `CCOC(=O)NNc1nncc2ccccc12` [Todralazine hydrochloride] is lower in ThS net change: 351 for the first, 334 for the second.

First: CC(C)(Oc1ccc(Cl)cc1)C(=O)O [Clofibric acid]
Second: COc1ccc2cc([C@H](C)C(=O)O)ccc2c1 [Naproxen]
The ThS net change of the first is lower: 349 for the first, 371 for the second.

Compared with `CC1Cc2ccccc2N1NC(=O)c1ccc(Cl)c(S(N)(=O)=O)c1` (centres unmarked) [Indapamide], `COC(=O)Nc1nc2cc(C(=O)c3ccc(F)cc3)ccc2[nH]1` [Flubendazol] is lower in ThS net change: 347 for the first, 332 for the second.

Compared with `C[C@@H]1CC[C@H]2[C@@H](C)C(=O)O[C@@H]3O[C@@]4(C)CC[C@@H]1[C@]32OO4` [Artemisinin], `C[C@]12CC[C@@H]3c4ccc(O)cc4CC[C@H]3[C@@H]1CCC2=O` [Estrone] is lower in ThS net change: 356 for the first, 344 for the second.

Compared with `CCCCN(CCCC)CCCOC(=O)c1ccc(N)cc1` [Butacaine], `CN(C(=O)CN(CCO)CC(=O)N(C)C(C)(C)Cc1ccccc1)C(C)(C)Cc1ccccc1` [Oxethazaine] is lower in ThS net change: 367 for the first, 329 for the second.

First: Cl.N[C@@H]1CCCCN(c2c(F)cc3c(=O)c(C(=O)O)cn(C4CC4)c3c2Cl)C1 [Besifloxacin hydrochloride]
Second: CC(=O)OCC(=O)[C@@]1(O)[C@H](C)C[C@H]2[C@@H]3CCC4=CC(=O)C=C[C@]4(C)[C@@]3(F)[C@@H](O)C[C@@]21C [Dexamethasone acetate]
The ThS net change of the first is higher: 360 for the first, 343 for the second.

Going from `CO[C@@]1(NC(=O)Cc2cccs2)C(=O)N2C(C(=O)O)=C(COC(N)=O)CS[C@@H]21` [Cefoxitin sodium salt] to `CC(C)(O/N=C(\C(=O)N[C@@H]1C(=O)N2C(C(=O)[O-])=C(C[n+]3ccccc3)CS[C@H]12)c1csc(N)n1)C(=O)O` [Ceftazidime pentahydrate], the ThS net change rises from 354 to 358.

First: CCN(CC)C(=S)SSC(=S)N(CC)CC [Disulfiram]
Second: CC(CN1c2ccccc2Sc2ccccc21)N(C)C (centres unmarked) [Promethazine hydrochloride]
The ThS net change of the first is higher: 339 for the first, 330 for the second.

same assay, conditions: p-tau aggregation modulator screen of 1280-compound library; […]

First: CCCC(C)C1(CC)C(=O)NC(=O)NC1=O (centres unmarked) [Pentobarbital]
Second: C1CCc2nnnn2CC1 [Pentylenetetrazole]
The ThS net change of the first is lower: 354 for the first, 365 for the second.

same assay, conditions: p-tau aggregation modulator screen of the compound library, ThS fluorescence net change

Compared with `CCCc1nc(C)c2c(=O)[nH]c(-c3cc(S(=O)(=O)N4CCN(CC)CC4)ccc3OCC)nn12` [Vardenafil], `CCOC(=O)N1CCC(=C2c3ccc(Cl)cc3CCc3cccnc32)CC1` [Loratadine] is higher in ThS net change: 414 for the first, 450 for the second.

Going from `Cn1c(=O)c2c(ncn2CC2OCCO2)n(C)c1=O` [Doxofylline] to `CCc1c(C)[nH]c2c1C(=O)C(CN1CCOCC1)CC2` (centres unmarked) [Molindone hydrochloride], the ThS net change rises from 451 to 458.

Going from `Cn1c(NCCN(CCO)CCCc2ccc([N+](=O)[O-])cc2)cc(=O)n(C)c1=O` [Nifekalant] to `CN(Cc1ccc(C(C)(C)C)cc1)Cc1cccc2ccccc12` [Butenafine Hydrochloride], the ThS net change falls from 438 to 436.

Going from `COc1ccccc1N1CCN(CC(O)COc2cccc3ccccc23)CC1.Cl.Cl` (centres unmarked) [Naftopidil dihydrochloride] to `COC(c1ccccc1)(c1ccccc1)[C@H](Oc1nc(C)cc(C)n1)C(=O)O` [Ambrisentan], the ThS net change rises from 453 to 506.

First: NCc1ccc(S(N)(=O)=O)cc1 [Mafenide hydrochloride]
Second: O=S(=O)(O)c1cc(O)ccc1O [Ethamsylate]
The ThS net change of the first is lower: 415 for the first, 455 for the second.

Going from `NCCC[C@H](N)CC(=O)N[C@H]1CNC(=O)[C@H]([C@H]2C[C@H](O)N=C(N)N2)NC(=O)/C(=C/NC(N)=O)NC(=O)[C@H](CO)NC(=O)[C@H](CO)NC1=O.O=S(=O)(O)O` [Viomycin sulfate] (β3hOrn-[Dap]SS[ΔAla(Z-3-ureido)][X1]; lactam 1-C) to `CO/N=C(\C(=O)N[C@@H]1C(=O)N2C(C(=O)O)=C(C[N+]3(C)CCCC3)CS[C@H]12)c1csc(N)n1` [Cefepime hydrochloride], the ThS net change falls from 453 to 418.

Compared with `C[C@]12CC[C@@H]3c4ccc(O)cc4C[C@@H](CCCCCCCCC[S+]([O-])CCCC(F)(F)C(F)(F)F)[C@H]3[C@@H]1CC[C@@H]2O` (some centres unmarked) [Fulvestrant], `O=C1c2cccc3c2[C@H](CCC3)CN1[C@@H]1CN2CCC1CC2` [Palonosetron hydrochloride] is higher in ThS net change: 442 for the first, 458 for the second.

Going from `CCCCC1=NC2(CCCC2)C(=O)N1Cc1ccc(-c2ccccc2-c2nnn[nH]2)cc1` [Irbesartan] to `CC(C)c1c(C(=O)Nc2ccccc2)c(-c2ccccc2)c(-c2ccc(F)cc2)n1CC[C@@H](O)C[C@@H](O)CC(=O)O` [Atorvastatin], the ThS net change rises from 454 to 488.

First: CCC1(C)CC(=O)NC1=O (centres unmarked) [Ethosuximide]
Second: CCCCCCNC(=O)n1cc(F)c(=O)[nH]c1=O [Carmofur, 1-hexylcarbamoyl-5-fluorouracil]
The ThS net change of the first is lower: 433 for the first, 1524 for the second.

Going from `N[C@@H](Cc1ccc(O)c(O)c1)C(=O)O` [Levodopa] to `O=C(CCNNC(=O)c1ccncc1)NCc1ccccc1` [Nialamide], the ThS net change rises from 444 to 470.

Compared with `CCOC1O[C@H]([C@@H](COCc2ccccc2)OCc2ccccc2)[C@H](OCc2ccccc2)[C@H]1O` (some centres unmarked) [Tribenoside], `CC(C)(Oc1ccc(C2CC2(Cl)Cl)cc1)C(=O)O` (centres unmarked) [Ciprofibrate] is lower in ThS net change: 690 for the first, 448 for the second.
